Laboratory results as given in patent US20250129095A1, “ANNULATED 2-AMINO-3-CYANO THIOPHENES AND DERIVATIVES FOR THE TREATMENT OF CANCER” (Boehringer Ingelheim Int'l GmbH Corp., priority 2021, published 2025).

What was measured:
[1] = target: T1, KRAS (G12V)::SOS1 (Homo sapiens, UniProt P01116, C118S/G12V); test: KRAS::SOS1 AlphaScreen binding assay, KRAS G12V
T1 construct: KRAS (G12V) 1-169, N-terminal 6His-tag for purification, cleaved off; 6His-tag (N, cleaved yes); TEV cleavage site; made in house
T1 sequence (P01116 1-169 isoform P01116-2 G12V/C118S): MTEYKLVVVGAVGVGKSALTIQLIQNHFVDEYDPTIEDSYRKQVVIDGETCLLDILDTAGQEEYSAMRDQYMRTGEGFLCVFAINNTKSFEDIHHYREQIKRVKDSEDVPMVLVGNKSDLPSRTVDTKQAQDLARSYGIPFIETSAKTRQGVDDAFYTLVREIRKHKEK
Source text: This assay can be used to examine the potency with which compounds according to the invention binding to (mutated) KRAS inhibit the protein-protein interaction between SOS1 and (mutated) KRAS e.g., KRAS WT, KRAS G12C, KRAS G12D, KRAS G12V, KRAS G13D. […] Low IC50 values in this assay setting are indicative of strong inhibition of protein-protein interaction between SOS1 and KRAS:
These assays measure the inhibitory effect of compounds on KRAS mutant protein-protein interactions using the Alpha Screen technology by Perkin Elmer
The following (mutant) enzyme forms of KRAS and interacting proteins are used in these assays at the given concentrations: • KRAS (G12D) 1-169, N-terminal 6His-tag, C-terminal avi-tag (Xtal BioStructures, Inc.); final assay concentration 10 nM and SOS1 564-1049, N-terminal 229 GST-tag, TEV cleavage site (Viva Biotech Ltd); final assay concentration 5 nM; • KRAS (G12C) 1-169, N-terminal 6His-tag for purification, cleaved off, C-terminal avi-tag, biotinylated, mutations: C51S, C80L, C118S (in house); final assay concentration 7.5 nM and SOS1 564-1049, N-terminal 229 GST-tag, TEV cleavage site (Viva Biotech Ltd); final assay concentration 5 nM; • KRAS (G12V) 1-169, N-terminal 6His-tag for purification, cleaved off, C-terminal avi-tag, biotinylated, TEV cleavage site, mutation: C118S, GDP loaded (in house); final assay concentration 10 nM and SOS1 564-1049, N-terminal 229 GST-tag, TEV cleavage site (Viva Biotech Ltd); final assay concentration 10 nM; • KRAS (G13D) 1-169, N-terminal 6His-tag for purification, cleaved off, C-terminal avi-tag, biotinylated, TEV cleavage site, mutation: C118S, GDP loaded (in house); final assay concentration 10 nM and SOS1 564-1049, N-terminal 229 GST-tag, TEV cleavage site (Viva Biotech Ltd); final assay concentration 10 nM; • KRAS (WT) 1-169, N-terminal 6His-tag for purification, cleaved off, C-terminal avi-tag, biotinylated, TEV cleavage site, mutation: C118S, GDP loaded (in house); final assay concentration 10 nM and SOS1 564-1049, N-terminal 229 GST-tag, TEV cleavage site (Viva Biotech Ltd); final assay concentration 10 nM.
Test compounds dissolved in DMSO are dispensed onto assay plates (Proxiplate 384 PLUS, white, PerkinElmer; 6008289) using an Access Labcyte Workstation with the Labcyte Echo 55×. For the chosen highest assay concentration of 100 μM, 150 nL of compound solution are transferred from a 10 mM DMSO compound stock solution. A series of eleven fivefold dilutions per compound are transferred to the assay plate, compound dilutions are tested in duplicates. DMSO are added as backfill to a total volume of 150 nL.
The assays run on a fully automated robotic system in a darkened room below 100 Lux. To 150 nl of compound dilution 10 μl of a mix including KRAS mutant protein, SOS1 (final assay concentrations see above) and GDP nucleotide (Sigma G7127; final assay concentration 10 μM) in assay buffer (1×PBS, 0.1% BSA, 0.05% Tween 20) are added into columns 1-24.
After 30 minutes incubation time 5 μl of Alpha Screen bead mix in assay buffer are added into columns 1-23. Bead mix consists of AlphaLISA Glutathione Acceptor Beads (PerkinElmer, Cat No AL109) and AlphaScreen Streptavidin Donor Beads (PerkinElmer Cat No 6760002) in assay buffer at a final assay concentration of 10 μg/ml each.
Plates are kept at room temperature in a darkened incubator. After an additional 60 minutes incubation time the signal is measured in a PerkinElmer Envision HTS Multilabel Reader using the AlphaScreen specs from PerkinElmer.
Each plate contains up to 16 wells of a negative control depending on the dilution procedure (platewise or serial) (DMSO instead of test compound; with KRAS mutant::SOS1 GDP mix and bead mix; column 23) and 16wells of a positive control (DMSO instead of test compound; with KRAS mutant::SOS1 GDP mix w/o bead mix; column 24).
As internal control known inhibitors of KRAS mutant::SOS1 interaction can be measured on each compound plate. […]

[2] = target: T2, CYP3A4 (Homo sapiens, UniProt P08684); test: Mechanism based inhibition of CYP3A4 assay (MBI 3A4); type: in vitro ADME; details: human liver microsomes, 25 uM, hydroxy-midazolam formation 30 min vs 0 min preincubation
T2 construct: from tissue; host or cells: human liver microsomes
T2 sequence (P08684 whole entry): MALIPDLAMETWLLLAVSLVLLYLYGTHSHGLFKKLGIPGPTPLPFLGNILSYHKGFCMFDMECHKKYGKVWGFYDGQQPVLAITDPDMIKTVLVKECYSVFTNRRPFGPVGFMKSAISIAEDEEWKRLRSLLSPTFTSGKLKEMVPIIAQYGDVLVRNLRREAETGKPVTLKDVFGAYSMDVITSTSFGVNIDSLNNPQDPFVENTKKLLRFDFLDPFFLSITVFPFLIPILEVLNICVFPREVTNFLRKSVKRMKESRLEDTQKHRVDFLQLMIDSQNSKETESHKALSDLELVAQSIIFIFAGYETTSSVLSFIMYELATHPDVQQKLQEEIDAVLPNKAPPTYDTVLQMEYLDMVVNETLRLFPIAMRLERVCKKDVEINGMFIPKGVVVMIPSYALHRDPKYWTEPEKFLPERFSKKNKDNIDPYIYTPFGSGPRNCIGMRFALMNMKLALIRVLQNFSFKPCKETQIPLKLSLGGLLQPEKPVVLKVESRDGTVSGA
Description: The time dependent inhibition towards CYP3A4 is assayed in human liver microsomes (0.02 mg/mL) with midazolam (15 μM) as a substrate. The test compounds and water control (wells w/o test compound) are preincubated in presence of NADPH (1 mM) with human liver microsomes (0.2 mg/mL) at a concentration of 25 uM for 0 min and 30 min. After preincubation, the incubate is diluted 1:10 and the substrate midazolam is added for the main incubation (15 min). The main incubation is quenched with acetonitrile and the formation of hydroxy-midazolam is quantified via LC/MS-MS. The formation of hydroxy-midazolam from the 30 min preincubation relative to the formation from the 0 min preincubation is used as a readout. Values of less than 100% mean that the substrate midazolam is metabolized to a lower extent upon 30 min preincubation compared to 0 min preincubation. In general low effects upon 30 min preincubation are desired (corresponding to values close to 100%/not different to the values determined with water control).

Compound	IC50 [1]	MBI 3A4 [%] [2]
C[C@H](Oc1cc(O[C@H]2CNC(C)(C)C2)nc(-c2noc3c2CCC[C@@]32CCCc3sc(N)c(C#N)c32)n1)[C@@H]1CCCN1C (single isomer, unassigned) [II-8]	10 nM	
C[C@H](Oc1cc(O[C@H]2CCOC2)nc(-c2noc3c2CCC[C@@]32CCCc3sc(N)c(C#N)c32)n1)[C@@H]1CCCN1C [II-4]		58%
C[C@H](Oc1cc(O[C@@H]2CNC2(C)C)nc(-c2noc3c2CCC[C@@]32CCCc3sc(N)c(C#N)c32)n1)[C@@H]1CCCN1C [II-9]	3 nM	72%
C[C@H](Oc1cc(OCC2(N(C)C)CC2)nc(-c2noc3c2CCC[C@@]32CCCc3sc(N)c(C#N)c32)n1)[C@@H]1CCCN1C [II-21]		76%
C[C@H](Oc1cc(OCC2(N(C)C)COC2)nc(-c2noc3c2CCC[C@@]32CCCc3sc(N)c(C#N)c32)n1)[C@@H]1CCCN1C [II-22]	2 nM	78%
COc1c(OCC2(N(C)C)COC2)nc(-c2noc3c2CCC[C@@]32CCCc3sc(N)c(C#N)c32)nc1O[C@@H](C)[C@@H]1CCCN1C [II-25]	2 nM	69%
C[C@H]1CN(C)CCCN1c1cc(O[C@@H]2CNC2(C)C)nc(-c2noc3c2CCC[C@@]32CCCc3sc(N)c(C#N)c32)n1 [II-28]		65%
C[C@H](Oc1cc(O[C@@H]2CNC[C@@H]2F)nc(-c2noc3c2CCC[C@@]32CCCc3sc(N)c(C#N)c32)n1)[C@@H]1CCCN1C [II-29]	2 nM	
CO[C@@H]1C[C@@H]([C@H](C)Oc2cc(O[C@@H]3CNC3(C)C)nc(-c3noc4c3CCC[C@@]43CCCc4sc(N)c(C#N)c43)n2)N(C)C1 [II-30]	2 nM	
C[C@H](Oc1cc(O[C@@H]2CNC2(C)C)nc(-c2noc3c2CCC[C@@]32CCCc3sc(N)c(C#N)c32)n1)[C@@H]1C[C@@H](F)CN1C [II-31]	2 nM	

Other lines, results leading:

IC50 [1]	MBI 3A4 [%] [2]	Compound
2 nM		C[C@H](Oc1cc(Oc2nccs2)nc(-c2onc3c2CCC[C@@]32CCCc3sc(N)c(C#N)c32)n1)[C@@H]1CCCN1C [Example I-1]
1 nM		C[C@H](Oc1cc(Oc2cccnc2)nc(-c2onc3c2CCC[C@@]32CCCc3sc(N)c(C#N)c32)n1)[C@@H]1CCCN1C [Example I-2]
	61%	COC[C@H](C)Nc1cc(O[C@@H](C)[C@@H]2CCCN2C)nc(-c2onc3c2CCC[C@@]32CCCc3sc(N)c(C#N)c32)n1 [Example I-5]
3 nM	77%	C[C@H](Oc1cc(OCC2(N(C)C)COC2)nc(-c2onc3c2CCC[C@@]32CCCc3sc(N)c(C#N)c32)n1)[C@@H]1CCCN1C [Example I-8]
	40%	C[C@H](Oc1cc(Oc2nccs2)nc(-c2noc3c2CCC[C@@]32CCCc3sc(N)c(C#N)c32)n1)[C@@H]1CCCN1C [II-2]
	69%	COCCOc1cc(O[C@@H](C)[C@@H]2CCCN2C)nc(-c2noc3c2CCC[C@@]32CCCc3sc(N)c(C#N)c32)n1 [II-5]
	61%	C[C@H](Oc1cc(OCCO)nc(-c2noc3c2CCC[C@@]32CCCc3sc(N)c(C#N)c32)n1)[C@@H]1CCCN1C [II-6]
2 nM	52%	C[C@H](Oc1cc(Nc2ncco2)nc(-c2noc3c2CCC[C@@]32CCCc3sc(N)c(C#N)c32)n1)[C@@H]1CCCN1C [II-13]
3 nM	67%	C[C@H](Oc1cc(Nc2cnccn2)nc(-c2noc3c2CCC[C@@]32CCCc3sc(N)c(C#N)c32)n1)[C@@H]1CCCN1C [II-14]
	64%	C[C@H](Oc1cc(Nc2ccncn2)nc(-c2noc3c2CCC[C@@]32CCCc3sc(N)c(C#N)c32)n1)[C@@H]1CCCN1C [II-15]
	48%	C[C@H](Oc1cc(Nc2ccccn2)nc(-c2noc3c2CCC[C@@]32CCCc3sc(N)c(C#N)c32)n1)[C@@H]1CCCN1C [II-16]
2 nM	75%	C[C@H](Oc1cc(Nc2ncccn2)nc(-c2noc3c2CCC[C@@]32CCCc3sc(N)c(C#N)c32)n1)[C@@H]1CCCN1C [II-17]
	64%	C[C@H](Oc1cc(Nc2cccnn2)nc(-c2noc3c2CCC[C@@]32CCCc3sc(N)c(C#N)c32)n1)[C@@H]1CCCN1C [II-18]
